Laboratory results taken from patent US10898548B2, “Modulators of protein tyrosine phosphatase and uses thereof” (LEUVAS THERAPEUTICS, priority 2015, dated 2021).
Where two headings read alike, the source gives them in different places. Marks after values point to notes of the source that are not given here.

What was measured:
[1] = system: Hbb^th3/+ mice (β-thalassemia model)
[2] = system: Hbb^th3/+ mice (β-thalassemia model); test: extramedullary erythropoiesis in spleen; assay type: in vivo, mouse; details: treated mice, 3 weeks
Experimental: (§1) Wild-type C57BL/6J mice and the mouse model for β-thalassemia (designated as Hbb^th3/+) were used for these studies. Flow cytometric analysis and sorting of mouse bone marrow and spleen precursors were performed using standard protocols using markers for CD44 and TER119 and cell size (forward scatter) to distinguish erythroid precursors at each distinct developmental stage. Forward scatter high-CD44+Ter119+ cells represents total erythroblasts (or erythroid mass in bone marrow or spleen). These erythroblasts can be further analyzed and sorted in subpopulations: population I: pro-erythroblasts; population II: basophilic erythroblasts; population III: polychromatic erythroblasts; population IV: orthochromatic erythroblasts, as described in Matte et al 2015, Antioxid. Redox Signal. 2015 23(16):1284-1297. Population II, III and IV corresponding to basophilic erythroblasts, polychromatic erythroblasts and orthochromatic erythroblasts were sorted from bone marrow as previously described (Matte et al 2015 Antioxid. Redox Signal. 2015 23(16):1284-1297).

[3] = system: Hbb^th3/+ mice (β-thalassemia model); test: bone marrow erythroid precursors by flow cytometry (CD44, TER119); assay type: in vivo, mouse; details: for percent of bone marrow erythroid precursors (fsc high CD44+TER119+ cells), Mean: ICD-Treated, 3 weeks
Experimental: as §1
Ineffective erythropoiesis in β-thalassemia is characterized by a block in cell maturation with accumulation of erythroid precursors and increased cell apoptosis in late phase erythropoiesis in the bone marrow.
Treatment of Hbb^th3/+ mice with PTPRG ICD results in a statistically significant increases in the percent of proerythroblasts (P<0.001) back to normal levels (5.9+/−0.6). In addition, ROS levels, which are increased in all four populations in Hbb mice compared to wild type mice are decreased PTPRG ICD-treated mice in all four populations, in agreement with the decrease in ROS levels in circulating red cells (Table 39).

[4] = body weight as a measure of toxicity; assay type: in vivo, mouse; details: Wild-type and Hbb^3th/+ mice; 5 mg/kg i.p once every other day for 3 weeks
Experimental: (§2) Wild-type and Hbb^3th/+ were treated with TAT-ICD at 5 mg/kg i.p once every other day for 3 weeks. […] Hematological parameters, red blood cell indices and reticulocyte counts were determined using standard procedures. Table 37 summarizes the effect of treatment of WT and HBB mice with TAT-ICD9 on key hematological parameters and red cell indices.

[5] = system: Hbb^th3/+ mice (β-thalassemia model); test: percent of soluble alpha globin in red cells; assay type: in vivo, mouse; details: TAT-ICD 5 mg/kg i.p once every other day for 3 weeks
Text: We also observed a significant improvement in the α/β globin ratio with treatment of beta-thalassemic mice, a key measure of successful treatment of beta-thalassemia. The mutations in the beta-globin gene in beta-thalassemia results in absent or reduced synthesis of beta-globin chains leading to unbalanced globin chain synthesis and unpaired alpha-chain that form highly toxic aggregates in erythroid progenitors and red blood cells, and can be measured as a decrease in soluble alpha globulin. We measured the amount of soluble vs insoluble globulin not bound to heme (Table 38) and observed a significant (P<0001; 2 tailed T test) decrease in the percent of soluble alpha-globin in the beta-thalassemic mice compared to wild type mice (Table 38).

[6] = system: Hbb^th3/+ mice (β-thalassemia model); test: hematological parameters and red cell indices in β-thalassemic and wild-type mice; assay type: in vivo, mouse; set-up: CH (hemoglobin concentration): unit not given here; details: TAT-ICD 5 mg/kg i.p. once every other day for 3 weeks
Experimental: as §1, §2

[7] = system: Hbb^th3/+ mice (β-thalassemia model); test: apoptosis of bone marrow orthochromatic erythroblasts (Annexin-V PE); assay type: in vivo, mouse; details: ICD-Treated, 3 weeks
Experimental: One of the hallmarks of β-thalassemia is increased apoptosis of late-stage erythroblasts. Apoptosis of population IV (orthochromatic erythroblasts) was assessed using standard protocols using the Annexin-V PE apoptosis kit following manufacturer instructions. Data are the mean percent of apoptotic cells (Table 42).

[8] = system: Hbb^th3/+ mice (β-thalassemia model); test: reactive oxygen species (ROS) levels, CM-H2DCFDA; assay type: in vivo, mouse; details: for mean ROS level in red cells: TAT-ICD 5 mg/kg i.p once every other day for 3 weeks
Experimental: Reactive oxygen species (ROS) are known to be increased in red blood cells in β-thalassemia and are thought to be important in the pathophysiology of the disease, leading to cumulative cell damage. The reactive oxygen species (ROS) levels from erythroid precursor populations was assessed using the General Oxidative Stress Indicator CM-H2DCFDA (Life Technologies, Carlsbad, Calif.) as described (Matte A. et al 2015 Antioxid. Redox Signal 23(16):1284-1297). […] Data are the mean ROS level.

[9] = system: Hbb^th3/+ mice (β-thalassemia model); test: circulating erythroblasts; assay type: in vivo, mouse; details: TAT-ICD 5 mg/kg i.p once every other day for 3 weeks

For “TAT-ICD: fusion recombinant protein SEQ ID 5: PTPRG intracellular domain aa 797-1445 fused to 13 aa TAT sequence”, the red cell morphology ([1]; Hbb^th3/+ mice) was “ameliorated red cell morphological abnormalities”, the red cell morphology ([1]; mouse, in vivo) was “without any changes” and the “extramedullar erythropoiesis in spleen” value [2] was “trend to reduction”. The “percent of bone marrow erythroid precursors (fsc high CD44+TER119+ cells), Mean” value ([3]; Hbb^th3/+ mice) was 23.8* percent, the “percent of bone marrow erythroid precursors (fsc high CD44+TER119+ cells), Mean” value ([3]; Wild-type mice) was 13.9% and the “percent of pro-erythroblasts (population I) in bone marrow” value ([3]; treated Hbb^th3/+ mice, untreated Hbb^th3/+ 3.6+/−0.9, wild-type 6.5+/−0.9) was 5.9+/−0.6%. The “body weight as a measure of toxicity” value [4] was “no changes were observed”, the “percent of soluble alpha globulin” value ([5]; Hbb^th3/+ mice, Vehicle-treated 87.9) was 92.5* % and the “percent of soluble alpha globulin” value ([5]; Wild-type mice, Vehicle-treated 98.4) was 97.9%. For the same substance, the “CH (hemoglobin concentration)” value ([6]; Hbb3th/+ mice, n = 4) was 10.4 ± 0.3, the “CHr (reticulocyte hemoglobin concentration)” value ([6]; Hbb3th/+ mice, n = 4) was 12.0 ± 0.39 pg and the “Hb (hemoglobin)” value ([6]; Hbb3th/+ mice, n = 4) was 10.1 ± 0.3 g/dL. The “Hct (hematocrit)” value ([6]; Hbb3th/+ mice, n = 4) was 34.8 ± 4.9 %, the “MCH (mean corpuscular hemoglobin)” value ([6]; Hbb3th/+ mice, n = 4) was 10.2 ± 0.4 pg and the “MCV (mean corpuscular volume)” value ([6]; Hbb3th/+ mice, n = 4) was 393 ± 0.9 fL. For the same substance, the “MCVr (mean corpuscular volume reticulocytes)” value ([6]; Hbb3th/+ mice, n = 4) was 49.2 ± 1.2 fL, the Neutrophil ([6]; Hbb3th/+ mice, n = 4) was 1407 ± 597 cells/uL and the “RDW (red cell distribution width)” value ([6]; Hbb3th/+ mice, n = 4) was 25.7 ± 1.0 %. The “Retics (reticulocytes)” value ([6]; Hbb3th/+ mice, n = 4) was 18.2 ± 2.0 %, the WBC ([6]; Hbb3th/+ mice, n = 4) was 9125 ± 1021 cells/uL and the “CH (hemoglobin concentration)” value ([6]; WT mice, n = 3) was 13.6 ± 0.2. The “CHr (reticulocyte hemoglobin concentration)” value ([6]; WT mice, n = 3) was 14.0 ± 0.1 pg, the “Hb (hemoglobin)” value ([6]; WT mice, n = 3) was 14.9 ± 0.4 g/dL and the “Hct (hematocrit)” value ([6]; WT mice, n = 3) was 46.3 ± 0.5%. For the same substance, the “MCH (mean corpuscular hemoglobin)” value ([6]; WT mice, n = 3) was 15.0 ± 0.7 pg, the “MCV (mean corpuscular volume)” value ([6]; WT mice, n = 3) was 50.1 ± 0.1 fL and the “MCVr (mean corpuscular volume reticulocytes)” value ([6]; WT mice, n = 3) was 55.0 ± 0.3 fL. For the same substance, the Neutrophil ([6]; WT mice, n = 3) was 1833 ± 461 cells/uL, the “RDW (red cell distribution width)” value ([6]; WT mice, n = 3) was 13.6 ± 0.3 % and the “Retics (reticulocytes)” value ([6]; WT mice, n = 3) was 4.3 ± 0.5 %. For the same substance, the WBC ([6]; WT mice, n = 3) was 6005 ± 980 cells/uL, the “mean percent of apoptotic cells, bone marrow orthochromatic erythroblasts (population IV)” value ([7]; Hbb^th3/+ mice) was 5.75* percent and the “mean percent of apoptotic cells, bone marrow orthochromatic erythroblasts (population IV)” value ([7]; Wild-type mice) was 4.20%. The “ROS levels in bone marrow erythroid precursor populations I-IV” value ([8]; Hbb mice, all four populations) was “decreased”, the “mean ROS level in red cells” value ([8]; Hbb^th3/+ mice, Untreated 13.75) was 9.73* and the “mean ROS level in red cells” value ([8]; Wild-type mice, Untreated 3.32) was 2.79. For the same substance, the circulating erythroblasts ([9]; Hbb^th3/+ mice, Vehicle-treated 32.0) was 10.8* and the circulating erythroblasts ([9]; Wild-type mice, Vehicle-treated 0) was 0.
